Measured values from patent US20120190615A1, “METHODS AND COMPOSITIONS FOR INDUCING WEIGHT LOSS” (Sanford-Burnham Medical Research Institute, priority 2011, published 2012).
Where “and” joins values, the source holds several entries; their conditions need not be identical. Identical values can stand only once.

How the values were obtained:
[1] = test system: BMP signaling; assay: BMP signaling in C3H10T1/2 cells (qPCR of Bmpr1a and BMP-7, Smad 1/5/8 phosphorylation); format: cell-based, mouse; details: 100 nM OX 3 days
From the text: Bone morphogenic proteins, which are members of the TGF-β superfamily, control critical steps in development and differentiation and are important regulators of both WAT and BAT adipogenesis. BMP-2 and -4 induce white fat adipogenesis, while BMP-7 enhances brown fat traits. BMP-7 functions through interacting with BMP receptors, which mediate Smad 1/5/8 phosphorylation, to stimulate brown fat adipogenesis.

[2] = test system: WtB6 mice fed a high fat diet; assay: High fat diet six weeks with two weekly OX injections, obesity resistance (Example 12); format: in vivo
From the text: To confirm that OX prevents obesity under conditions of caloric excess, a high fat diet (HFD) was fed to WtB6 mice for six weeks. Mice received two weekly OX or PBS injections (n=6/group). Food intake and body weight of both groups were monitored weekly. […] OX-injected animals, however, resisted weight gain, which became apparent during the second wk of therapy (FIG. 28B). At the conclusion of the treatment period, OX-treated mice were visibly lean (FIG. 28C, D) and weighed 7 g±1.2 g less than the control group (FIG. 28B, Table 3). […] Total visceral fat was reduced by more than 60%. Visceral fat in the OX-injected group was noticeably darker in color relative to control tissue (FIG. 28E, F).
Further, the respiratory quotient of OX-injected group was 10% lower than the vehicle injected group, indicating higher fat oxidation capacity (FIG. 28J). […] To determine whether systemic OX injection induces BAT activity, mice with OX (10 mg/kg) or PBS were compared, using relative UCP-1 expression as an indicator for BAT activity 24-hours post-injection.

[3] = test system: HIB1 cells; assay: Differentiation of HIB1 brown preadipocytes (lipid accumulation, mitochondrial biogenesis); format: cell-based; details: 24 hours, absence of standard induction cocktail
Protocol: To further investigate the role of OX in BAT differentiation, the effect of OX on the preadipocyte cell line HIB1 was evaluated. […] Expression of genes functioning in lipid metabolism and mitochondrial biogenesis was elevated while the anti-adipogenic factors […], Pref1, and Wnt10 were expressed at very low levels (FIG. 16).
HIB1 cells were stably transfected with lentivirus over-expressing orexin (Len-OX) and compared to vector controls in the absence or presence of exogenous OX (100 nM), Cells were cultured for 7 days in the absence of differentiation medium and stained with Oil Red O. By day 6 of adipogenic differentiation, orexin-expressing cells had undergone normal BAT differentiation as scored by lipid accumulation.
Brown fat morphological defects seen in both adult and newborn OXR1 KO mice were similar to those observed in OX KO mice. […] To examine the cellular and molecular consequences of OXR1 depletion, lentiviral vectors were used to express a short hairpin (sh) shRNA targeting OXR1 (shOXR1; Open Biosystems, Inc., catalog no. RMM4431-98766481) or a scrambled shRNA control (Open Biosystems, Inc., catalog no. RHS4346) in HIB1 mesenchymal cells. […] After 5 days of differentiation, cultures expressing the scrambled shRNA control had undergone brown fat differentiation as scored by Oil Red O staining and shown in FIG. 18. […]

[4] = test system: primary brown preadipocytes; assay: Differentiation of primary brown preadipocytes (Oil Red O); format: cell-based, mice
From the text: To assess differentiation of primary brown adipocytes, iBAT preadipocytes were isolated from 1-day-old mice and then differentiated in the presence of OX. Differentiation was confirmed by Oil Red O staining which visualizes lipid accumulation (FIG. 7). […] Taken together. OX activates a full program of brown fat adipogenesis by suppressing adipogenic inhibitors, including BAT regulators, elevating mitochondrial biogenesis and oxygen consumption, and inducing uncoupled respiration.
To investigate whether lack of OXR1 impaired BAT differentiation potential, primary brown preadipocytes from OXR1 knockout mice were isolated and differentiated. Generation of wild-type primary brown preadipocyte cell lines was derived from newborn wild-type mice as described previously by Klein et al. (Bioessays, 24: 382-388, 2002), which is hereby incorporated by reference in its entirety. Brown preadipocytes isolated from C57BL-6 mice served as positive control. All cell lines were maintained in Dulbecco's modified […] medium (DMEM), high glucose, supplemented with 10% FBS at 37° C. in a 5% CO2 environment. To induce adipogenesis, the cells were treated for 3 days with either BMP7 or 100 nM OX, at which time they were confluent. Cells were then incubated in adipogenic medium containing 0.125 mM indomethaein, […] dexamethazone, and […] 3-isobutyl-1-methyxanthine (IBMX) supplemented by 20 nM insulin as described by Tseng et al., (Nature, 454: 1000-1004, 2008) which is hereby incorporated by reference in its entirety.

[5] = test system: wild-type C57BL6 mice fed a high fat diet; assay: High fat diet six weeks with OX once per day, body weight and NMR body composition (Example 11); format: in vivo; details: HFD six weeks
Protocol: To confirm these findings and investigate the role for OX in energy metabolism and to prevent obesity, wild-type C57BL6 mice were fed a high fat diet (HFD) for six weeks. During this period, half of the mice received OX intraperitoneally once per day, while the other half was injected with saline. Food intake and body weight of both groups were monitored weekly. OX-treated mice ate more, resisted weight gain, were visibly lean, and accumulated less fat. […] Fat and lean mass were determined by subjecting mice to nuclear magnetic resonance (NMR) (Bruker, The Woodlands, Tex., United States) following a four-hour fast. OX therapy had no impact on either the lean mass or total fluid content. FIG. 27 illustrates these findings. Weekly energy intake, cumulative energy consumed, body weight gain over six weeks, and differences in body size between the two groups of mice are depicted.

[6] = HFD six weeks, two weekly injections

Substance: orexin-A (EPLPDCCRQKTCSCRLYELLHGAGNHAAGILTL) [OX, human orexin A, cat; No. 24470, Anaspec]
- BMP-receptor 1A and BMP-7 mRNA expression [1]: induced
- % body fat [2, 6]: 15% and 15 ± 1.1%
- Fat mass [2, 6]: 3.4 ± 0.4
- Fluid content [2, 6]: 7.7 ± 1.5
- Lean mass [2, 6]: 18.7 ± 1.1
- Lean mass-fat mass ratio [2, 6]: 5.5 ± 0.3
- iBAT UCP1 expression ([2]; OX 10 mg/kg, 24-hours post-injection): higher UCP1 levels than controls
- body weight less than the control group ([2]; at the conclusion of the treatment period): 7 g
- oxygen consumed, more than the control group ([2]; calorimetric measurements): 15%
- respiratory quotient, lower than the vehicle injected group ([2]; calorimetric measurements): 10%
- reduction of total visceral fat ([2]; end of the study): more than 60%
- reduction of whole body fat mass ([2]; end of the study): 50%
- physical activity ([2]; infrared monitoring, two weeks): not more physically active
- increase in twenty-four hour energy expenditure ([2]; relative to control mice): 19%
- cumulative food intake over the 6-week period ([2]; versus vehicle): not significantly different
- food intake during the first week ([2]; versus vehicle): ate significantly more
- lean mass or fluid content ([2]; versus vehicle): not significantly different
- lipid accumulation and mitochondrial biogenesis [3]: induced extensive lipid accumulation and mitochondrial biogenesis
- differentiation of wild-type preadipocytes based on lipid accumulation ([4]; 3 days BMP7 or 100 nM OX, then adipogenic medium): enhanced differentiation
- adipogenesis of iBAT preadipocytes from 1-day-old mice ([4]; differentiated in the presence of OX): robust adipogenesis within 7 days
- differentiation of brown preadipocytes from OXR1-null mice ([4]; in the presence of OX): little differentiation capacity
- abdominal obesity of control mice relative to OX-treated mice ([5]; OX i.p. once per day): 3.5 times
- body fat accumulated by control mice relative to OX-treated mice ([5]; OX i.p. once per day): twice as much body fat
- control mice heavier than OX-treated mice ([5]; OX i.p. once per day): approximately 35%
- impact on lean mass or total fluid content ([5]; OX i.p. once per day): no impact
- % body fat ([5]; NMR, n=4): 15 ± 1.1%
- Fat mass ([5]; NMR, n=4): 3.4 ± 0.4
- Fluid content ([5]; NMR, n=4): 7.7 ± 1.5
- Lean mass ([5]; NMR, n=4): 18.7 ± 1.1
- Lean mass-fat mass ratio ([5]; NMR, n=4): 5.5 ± 0.3
